In the supplement of paper PMC10307832:

What was measured:
Test in all cases: relative viability (nuclei count vs DMSO), 5 days (fraction); higher = more cells survive
[1] = compound: Nc1ncn([C@H]2C[C@H](O)[C@@H](CO)O2)c(=O)n1 [Decitabine] + CS(=O)(=O)CCNCc1ccc(-c2ccc3ncnc(Nc4ccc(OCc5cccc(F)c5)c(Cl)c4)c3c2)o1 [Lapatinib] (partner 2 µM)
Method in brief: (§1)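 Nuclei were stained with Hoechst during a one-step fixation (final 0.05% Triton X-100, 1% formaldehyde, 1 ug/ml Hoechst) carried out 5 days after dosing, then counted on 4× images. The cells, lung cancer lines in 1536-well plates, had been dosed by pin tool the day after seeding with one drug alone or a fixed anchor-drug dose plus five library-drug doses (not always all listed) in √10 steps. Relative viability is the nuclei count in treated wells divided by that in vehicle wells, and each value is the median of duplicate plates.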

[2] = compound: O=C(C[C@H]1NCCC[C@@H]1O)Cn1cnc2cc(Br)c(Cl)cc2c1=O (racemic) [Halofuginone] + CC1(C)CCC(c2ccc(Cl)cc2)=C(CN2CCN(c3ccc(C(=O)NS(=O)(=O)c4ccc(N[C@H](CCN5CCOCC5)CSc5ccccc5)c(S(=O)(=O)C(F)(F)F)c4)cc3)CC2)C1 [Navitoclax] (partner 0.5 µM)
Method in brief: as §1

[3] = compound: O=C(C[C@H]1NCCC[C@@H]1O)Cn1cnc2cc(Br)c(Cl)cc2c1=O (racemic) [Halofuginone] + C[C@]1(O)C[C@@H](c2nc(-c3ccc4ccc(-c5ccccc5)nc4c3)c3c(N)nccn32)C1 [Linsitinib] (partner 1 µM)
Method in brief: as §1

[4] = compound: COc1cc2c(Oc3ccc4[nH]c(C)cc4c3F)ncnc2cc1OCCCN1CCCC1 [Cediranib] + C[C@@H](Oc1cc(-c2cnn(C3CCNCC3)c2)cnc1N)c1c(Cl)ccc(F)c1Cl [Crizotinib] (partner 1 µM)
Method in brief: as §1

Cell Line	relative viability ([1]; first compound 0.04 µM)	relative viability ([1]; first compound 0.1265 µM)	relative viability ([1]; first compound 0.4 µM)	relative viability ([1]; first compound 1.265 µM)	relative viability ([1]; first compound 4 µM)	relative viability ([2]; first compound 0.001 µM)	relative viability ([2]; first compound 0.003162 µM)	relative viability ([2]; first compound 0.01 µM)	relative viability ([2]; first compound 0.03162 µM)	relative viability ([2]; first compound 0.1 µM)	relative viability ([3]; first compound 0.001 µM)	relative viability ([3]; first compound 0.003162 µM)	relative viability ([3]; first compound 0.01 µM)	relative viability ([3]; first compound 0.03162 µM)	relative viability ([3]; first compound 0.1 µM)	relative viability ([4]; first compound 0.04 µM)	relative viability ([4]; first compound 0.1265 µM)	relative viability ([4]; first compound 0.4 µM)	relative viability ([4]; first compound 1.265 µM)	relative viability ([4]; first compound 4 µM)
NCI-H1651	0.799	0.977	0.708	0.676	0.747	1.04	1.15	1.12	0.761	0.267	1.07	0.978	0.994	0.6	0.332	0.887	0.904	0.876	0.89	0.976
NCI-H1666	0.622	0.66	0.488	0.56	0.476	1.1	0.885	0.962	1.01	0.419	1.03	0.957	0.779	0.842	0.703	1.02	1.02	0.896	1.01	0.874
NCI-H1703	0.698	0.652	0.484	0.36	0.274	1.46	1.04	1.08	0.765	0.194	0.944	1.03	0.617	0.559	0.353	0.721	0.707	0.188	0.214	0.191
NCI-H1734	0.727	0.91	0.635	0.449	0.38	0.825	0.961	0.799	0.762	0.378	0.904	0.947	0.888	0.938	0.416	0.604	0.612	0.551	0.691	0.695
NCI-H1755	1.02	0.991	0.836	0.573	0.481	0.958	1.01	0.995	1.01	0.596	1.06	1.02	0.971	0.985	0.768	0.888	0.845	0.838	0.855	0.848
NCI-H1792	0.851	0.94	0.806	0.564	0.53	0.557	0.671	0.783	0.664	0.654	0.602	0.501	0.642	0.569	0.523	1.03	1.03	0.915	0.979	0.882
NCI-H1915	0.608	0.33	0.257	0.189	0.219	0.776	0.785	0.8	0.756	0.771	1.05	1.1	1	1.06	0.974	1.01	0.851	0.883	0.873	0.832
NCI-H1944	0.807	0.819	0.526	0.428	0.416	1.04	1.06	1.02	1.05	1.01	1.2	1.1	1.22	1.13	0.936	1.14	1.03	0.994	1.05	1.06
NCI-H1975	0.538	0.456	0.364	0.327	0.29	1.2	1.08	1.1	0.554	0.205	1.09	0.924	0.976	0.497	0.15	1.16	1.05	0.92	1.02	0.913
NCI-H1993	0.837	0.774	0.8	0.731	0.725	1.04	0.875	1.04	0.874	0.668	0.742	0.685	0.72	0.801	0.544	0.968	0.902	0.886	0.865	0.858
NCI-H2009	0.8	0.599	0.225	0.268	0.276	1.22	1.13	1.09	1.02	0.67	1.27	1.12	1.19	0.872	0.81	1.12	1.03	0.989	1.06	1.04
NCI-H2023	0.55	0.519	0.125	0.231	0.157	1.02	0.986	0.926	0.577	0.15	0.76	0.535	0.706	0.232	0.157	0.579	0.703	0.489	0.575	0.588
